By pIC50 is commonly meant the negative decadic logarithm of the IC50, by convention in mol/L. Read a low pIC50 as a large IC50.

pIC50: −log10 of the molar value.

Chain of Angiotensin-converting enzyme (Rattus norvegicus) (P47820 whole entry, looked up): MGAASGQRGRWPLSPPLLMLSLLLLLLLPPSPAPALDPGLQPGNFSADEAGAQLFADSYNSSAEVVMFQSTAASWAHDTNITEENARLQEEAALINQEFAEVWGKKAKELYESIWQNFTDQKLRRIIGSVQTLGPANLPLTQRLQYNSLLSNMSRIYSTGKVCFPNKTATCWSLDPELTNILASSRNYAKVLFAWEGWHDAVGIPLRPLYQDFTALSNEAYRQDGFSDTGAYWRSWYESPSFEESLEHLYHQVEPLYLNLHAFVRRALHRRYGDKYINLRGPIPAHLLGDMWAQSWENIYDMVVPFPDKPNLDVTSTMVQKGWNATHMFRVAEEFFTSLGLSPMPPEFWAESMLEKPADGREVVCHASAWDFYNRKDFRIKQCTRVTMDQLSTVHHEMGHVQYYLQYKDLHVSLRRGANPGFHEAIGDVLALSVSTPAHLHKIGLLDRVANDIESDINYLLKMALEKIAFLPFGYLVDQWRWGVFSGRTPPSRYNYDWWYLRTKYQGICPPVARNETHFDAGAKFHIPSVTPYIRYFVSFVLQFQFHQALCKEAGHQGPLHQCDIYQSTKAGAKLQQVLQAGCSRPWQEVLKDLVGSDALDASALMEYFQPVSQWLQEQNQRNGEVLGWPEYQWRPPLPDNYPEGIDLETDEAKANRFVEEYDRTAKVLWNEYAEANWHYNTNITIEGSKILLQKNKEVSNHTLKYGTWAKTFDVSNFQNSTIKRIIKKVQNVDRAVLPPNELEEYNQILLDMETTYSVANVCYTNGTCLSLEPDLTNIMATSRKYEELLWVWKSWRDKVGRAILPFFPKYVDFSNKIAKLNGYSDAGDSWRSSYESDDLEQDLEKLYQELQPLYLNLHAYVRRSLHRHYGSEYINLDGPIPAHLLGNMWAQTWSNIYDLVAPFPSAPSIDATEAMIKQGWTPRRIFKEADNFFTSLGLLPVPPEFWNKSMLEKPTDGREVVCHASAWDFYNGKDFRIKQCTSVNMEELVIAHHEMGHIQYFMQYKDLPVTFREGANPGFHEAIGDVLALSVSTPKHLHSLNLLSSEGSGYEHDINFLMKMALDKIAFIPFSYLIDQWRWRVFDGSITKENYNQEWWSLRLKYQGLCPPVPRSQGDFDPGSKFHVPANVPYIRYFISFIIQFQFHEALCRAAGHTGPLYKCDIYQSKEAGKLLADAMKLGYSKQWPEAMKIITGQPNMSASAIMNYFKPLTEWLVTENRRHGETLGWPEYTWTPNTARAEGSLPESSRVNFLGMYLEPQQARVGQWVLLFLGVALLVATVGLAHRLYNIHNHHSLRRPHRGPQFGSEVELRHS

This assay concerns the target Angiotensin-converting enzyme (Rattus norvegicus) (UniProt P47820). Description: In vitro inhibitory activity against angiotensin converting enzyme (ACE) in rat was determined.
For `O=C(N[C@H]1CCC(=O)N2CC[C@@H](C(=O)O)N2C1=O)[C@@H](S)Cc1ccccc1`, the pIC50 was 7.70. The result for `O=C(N[C@H]1CCC(=O)N2CCC[C@@H](C(=O)O)N2C1=O)[C@@H](S)Cc1ccccc1` reads 8.15. The figure for `CN1C(=O)CC[C@H](NC(=O)[C@@H](S)Cc2ccccc2)C(=O)N1CC(=O)O` is 7.80. The figure for `CN1CCC[C@H](NC(=O)[C@@H](S)Cc2ccccc2)C(=O)N1CC(=O)O` is 7.80; for `CCCN1CCC[C@H](NC(=O)[C@@H](S)Cc2ccccc2)C(=O)N1CC(=O)O` it is 8.22; for `CCCN1C(=O)CC[C@H](NC(=O)[C@@H](S)Cc2ccccc2)C(=O)N1CC(=O)O` it is 8.00. Consider `O=C(N[C@H]1CCCN2CC[C@@H](C(=O)O)N2C1=O)[C@@H](S)Cc1ccccc1`, for which the pIC50 is 7.92. The figure for `O=C(N[C@H]1CCCN2CCC[C@@H](C(=O)O)N2C1=O)[C@@H](S)Cc1ccccc1` is 8.10; for `O=C(O)CN1NCCC[C@H](NC(=O)[C@@H](S)Cc2ccccc2)C1=O` it is 7.22.

For the origin of these results see BindingDB's records for doi:10.1016/S0960-894X(01)80562-X (1994).
